The text below walks through data of US20110306071A1, “Compositions and Methods for Identifying Substrate Specificity of Inhibitors of Gamma Secretase” (ELAN PHARMACEUTICALS, INC., priority 2007, published 2011).

Experiment [1] concerns gamma secretase. The experiment is described as follows: Aβ production from C99GVP and mutant or chimeric substrates in transfected HEK cells (ELISA, IP/Western blot). In kind it is cell-based, Human. As to conditions: for drop of Aβ40: Aβ40 ELISA, FIG. 9C; for reduction in total Aβ: IP/Western blot densitometry, FIG. 9B; for effect on secreted Aβ / Aβ production compared with C99GVP control: FIGS. 8C, 8D, 9B, 9C. An excerpt: Plasmid Construction of JMD Chimeric Substrates: A pcDNA3.1-C99 plasmid similar to the previously described SPA4CT-LE construct (Dyrks, et al., FEBS Lett., 1992; 309: 20-24) was generated by standard PCR techniques. The APP signal peptide was fused to the N-terminus of the C99 fragment via a dipeptide leucine-glutamic acid (LE) linker. The strategy used to generate the pcDNA3.1-C99GVP construct was similar to a previously described method (Karlstrom, H., et al., J. Biol. Chem., 2002; 277: 6763-6766). (See, generally, FIG. 3). Briefly, an AscI site was introduced immediately 3′ of the nucleotides encoding the triple-lysine (K) membrane anchor of C99, where the GVP coding sequence was subsequently inserted in frame (to the C-terminal side of the lysine membrane anchor sequence of C99). […] All three chimeras were constructed by using a two-stage PCR method with two pairs of overlapping primers (for list of primers, see Table I). These chimeric substrates were characterized to assess activity as gamma secretase substrates and subsequent production and secretion of Aβ and AICD (FIGS. 6-7). […] The C99GVP-SLSS quadruple JMD chimera was also constructed with the same PCR method. Point mutations within the luminal juxtamembrane domain (i.e., C99GVP-G25S, S26L, N27S and K28S; FIGS. 2 and 9A-D) were generated using QuikChange (Stratagene) site-directed mutagenesis kit according to the manufacturer's instructions. All cDNAs were verified by sequencing. The Aβ and Aβ-like peptides generated from C99GVP and the various chimeric substrates were numbered with reference to the first N-terminal residue (Asp-1) of the Aβ peptide.
Cell Culture and Transient Transfection: Human embryonic kidney 293 (HEK 293) cells (ATCC) were grown in Dulbecco's Modified Eagle Medium with High Glucose (DMEM, obtained from Gibco/Invitrogen, Cat #11960) supplemented with 10% fetal bovine serum (Hyclone, SV 30014.03) and 50 units/ml penicillin and streptomycin (37° C., 5% CO2). Cells were used at less than passage number 30. At the time of seeding, viability of cells was greater than 95% as determined using a Vi-Cell Analyzer (Beckman-Coulter). Confluence of cells on plates was kept at greater than 95% during all phases of the experiment as determined with a standard tissue culture inverted microscope. All transfections were carried out on 5×10^6 cells in 6-well tissue culture plates (Costar). The following 3 plasmids: pG5E1B-luc, 200 ng (gift from R. Maurer, OHSU); pCMV-β-gal, 100 ng (gift from R. Maurer, OHSU); C99GVP or the various chimeric constructs, 200-400 ng were added together to each well. FuGENE6 reagent (Roche Cat. #11-814443001) was used according to manufacturer's protocol for the transient transfection of adherent cells. Transfected cells were reseeded onto 12 well (2×10^6 cells) and/or 96-well (5×10^4 cells) plates (Costar) 16 h post-transfection; fresh media was added either with or without gamma secretase inhibitors. The cells and conditioned media were harvested 48 h post-transfection for analysis.
Immunoprecipitation (IP) and Western Blot Detection of Aβ: Total Aβ peptides in conditioned medium or cell lysate were immuno-precipitated at 4° C. overnight with 4 μg of the 2H3 antibody, followed by incubation with 50 μl of a 50% protein G-Sepharose (GE Healthcare) slurry for 1 hr and three washes in the same lysis buffer as described above in the Western Blot discussion. Proteins were eluted from the solid-phase immunoprecipitates in Laemmli sample buffer by heating at 70° C. for 5 min and resolved on 10-20% Tris-Tricine SDS-PAGE or the modified Tris-Tricine/8M urea gels (Qi-Takahara, Y., et al., J Neurosci. (2005; 25, 436-445). After transferring onto nitrocellulose membranes (Invitrogen), the membranes were heated to 98° C. for 5 min in PBS, immunostained with the 2H3 antibody and visualized with Super-signal West Pico chemiluminescent substrate (Pierce). Each experiment was repeated at least three times. […]
(ELISA stands for enzyme-linked immunosorbent assay.)

Experiment [2] concerns the target T1, gamma secretase γ and ε cleavage of Fas-APPsw-DD (Homo sapiens, UniProt P49768).
T1 construct: active gamma secretase is endogenously and constitutively produced by the cell cultures; endogenous in cells; host or cells: HEK 293, transfected with Fas-APPsw-DD
The experiment is described as follows: Concurrent Aβ and AICD ELISA in Fas-APPsw-DD transfected 293 cells (APP γ versus ε cleavage). It is filed as cell-based. As for the experimental part:
Polyclonal antibody AICD ELISA. HEK 293 cells were grown under standard conditions to ˜90% confluence. Cells were harvested, counted, and subsequently plated onto PDL-coated 60 mm dishes at 2×10^6 cells/dish in 5 mL media. The cells were allowed to settle onto the dishes for ˜4 hours. Transfection of various construct into cells was performed using standard techniques using Lipofectamine 2000™ (LF2K) (Invitrogen). Briefly, 2 μg plasmid DNA and 4 μL LF2K were diluted into separate 150 μL aliquots of Opti-MEM (Gibco), and allowed to stand for 10-15 minutes. The two aliquots were then mixed, and the DNA:Lipid complex allowed to form for about 20 minutes. The 300 μL DNA:Lipid complex was then added to the cells in 3 mL fresh media, and incubated overnight. In order to administer potential or known gamma secretase inhibitor compounds to cells, the transfected cells were harvested, replated into PDL-coated 24-well plates at 200,000 cells/well, and allowed to settle onto the plates for ˜4 hours. Cells were washed, and 500 μL fresh media added. […]
The term ‘non-selective’ in this instance refers to lack of selectivity for cell Aβ over Notch signaling (or GammaAPP over GammaNotch). […] The calculated γ/ε selectivity of the non-selective compounds (FIG. 11 and Table I) were 0.7, 1.1, 1.8 and 1.9 for DAPT, 44989, 46719 and the Merck compound, respectively. […]

The target in experiment [3] is T2, gamma secretase cleavage of C99GVP (AICD-GVP) (Homo sapiens, UniProt P49768).
T2 construct: active gamma secretase is endogenously and constitutively produced by the cell cultures; endogenous in cells; host or cells: HEK 293, co-transfected with C99GVP, pG5E1B-luc and pCMV-β-gal
The experiment is described as follows: Luciferase reporter gene assay, AICD-GVP transactivation from C99GVP in HEK293 cells. It is filed as cell-based. As to conditions: C99-GVP, FIG. 5C. As for the experimental part: Luciferase Reporter Gene Assay: Luciferase reporter assays were carried out 48 hr post-transfection. Cells seeded on 96-well plates (BD Biosciences) were washed once with PBS and harvested in 20 μl of reporter lysis buffer (Promega) per well. After adding 100 μl of luminescent substrate (Promega), the luciferase activity was measured with a MicroLumatPlus microplate luminometer (Berthold Technologies). The β-galactosidase activity was measured similarly, using a luminescent β-galactosidase substrate (BD Biosciences). As a control for transfection efficiency and general effect on transcription, the luciferase activity was normalized by measuring β-galactosidase activity on a duplicate plate. All measurements were done in triplicate and repeated at least three times.
Luciferase Assay. After confirming AICD-GVP generation in HEK cells, its ability to transactivate a luciferase reporter gene that contains Gal4 response elements in the upstream activation sequence (UAS) was tested. […] Some residual luciferase activity remained in the presence of excess gamma secretase inhibitors, even though identical treatment completely abolished AICD production as measured by Western blot (FIG. 5B). […]

Experiment [4] deals with gamma secretase (secreted Aβ40 and Aβ42). The experiment is described as follows: Aβ sandwich ELISA of media from C99GVP or APP transfected HEK cells treated with inhibitors. In kind it is cell-based, Human. As to the method:
Inhibitor Treatment of Transfected HEK Cell: The transition state analogue gamma secretase inhibitor-L685,458 (Sigma) and the peptidomimetic inhibitor-DAPT (Dovey, H. F., et al., J Neurochem., 2001; 76:173-181) were dissolved in DMSO to make 20 mM stocks. Similarly, a number of Elan's series of sulfonamide inhibitors were prepared and used as described herein (see, also FIGS. 11-14). Inhibitors were added to cell cultures (e.g., HEK) at the indicated final concentration, and the treated cells were harvested 48 h post-transfection. The metallo-proteinase inhibitor TAPI-1 (Calbiochem) was used at a final concentration of 40 μM. The Aβ-degrading enzyme inhibitors, Bacitracin (Calbiochem) and phosphoramidon (Calbiochem) were used at final concentration of 1 mg/ml and 40 μM, respectively. All inhibitor experiments were performed in triplicate and repeated at least three times.
ELISAs used to quantify different Aβ species were performed using standard techniques as described above and in (Johnson-Wood, K., et al., Proc. Natl. Acad. Sci. U.S.A., 1997; 94: 1550-1555, incorporated by reference). The Aβ40 and Aβ42 peptides in the samples were captured onto 2G3 or 21F12 antibody coated plates, respectively, and detected with a biotinylated 2H3 antibody. The fluorescence signal generated from a streptavidin-alkaline phosphatase conjugate (Roche) was measured with a CytoFlour microplate reader (Applied Biosystems). Synthetic Aβ40 or Aβ42 peptides (Anaspec) were used to generate standard curves (FIG. 10). All measurements were done in triplicate.
Next, Aβ generation was characterized from C99GVP. Wild type HEK cells and the mock-transfection control secreted little Aβ into the conditioned media (FIG. 5D, lane 1). In contrast, transient expression of C99GVP led to robust Aβ production, as measured by IP/Western blot (FIG. 5D) and ELISAs that detect Aβ 40 and Aβ42 species, respectively ([…], top panel). […] Finally, we compared the Aβ-lowering potency of two inhibitors, using either C99GVP or the wild type APP as substrate. As determined by ELISA, the respective IC50 values for the two substrates are essentially identical (FIG. 5E).

For “C99GVP-S26L: C99GVP point mutant S26L in the GSNK motif (SEQ ID NO:44) (LEDAEFRHDSGYEVHHQKLVFFAEDVGLNKGAIIGLMVGGVVIATVIVITLVML)”, in experiment [1] (versus C99GVP), the “drop of Aβ40” value is given as 52.7±2.3% and the “reduction in total Aβ” value came to 65.7±8.5%. For the molecule “C99GVP-APLP2*: APLP2 JMD swap chimera of C99GVP retaining the pre-TMD GSNK motif of APP (SEQ ID NO:19) (LEDAEFRHDSGLEEERESVGPLREDFGSNKGAIIGLMVGGVVIATVIVITLVML)”, in experiment [1], the “effect on secreted Aβ / Aβ production compared with C99GVP control” value was “indistinguishable from the C99GVP control”. Still for that read-out and setting: as for “G25S: C99GVP point mutant G25S in the GSNK motif (SEQ ID NO:43) (LEDAEFRHDSGYEVHHQKLVFFAEDVSSNKGAIIGLMVGGVVIATVIVITLVML)”, the entry is “no obvious effect”. Same read-out and setting: as for “N27S: C99GVP point mutant N27S in the GSNK motif (SEQ ID NO:45) (LEDAEFRHDSGYEVHHQKLVFFAEDVGSSKGAIIGLMVGGVVIATVIVITLVML)”, the entry is “no obvious effect”. Consider “C99GVP-K28S: C99GVP point mutant K28S in the GSNK motif (SEQ ID NO:46) (LEDAEFRHDSGYEVHHQKLVFFAEDVGSNSGAIIGLMVGGVVIATVIVITLVML)”, for which, in experiment [1] (versus C99GVP), the “drop of Aβ40” value was roughly 90% and the “reduction in total Aβ” value was roughly 90%. As to `CC(C)C[C@H](NC(=O)[C@H](Cc1ccccc1)C[C@@H](O)[C@H](Cc1ccccc1)NC(=O)OC(C)(C)C)C(=O)N[C@@H](Cc1ccccc1)C(N)=O` [L-685,458], the “γ/ε selectivity = IC50 AICD/IC50 Aβ” value in experiment [2] came out at 1.9. Moreover, the “luciferase reporter transactivation by AICD-GVP” value in experiment [3] is “block luciferase reporter transactivation”. Besides, the “secreted Aβ (Aβ40 and Aβ42)” value in experiment [4] (5 μM, 24 h, FIG. 5D) is “block secreted Aβ”. Further, the “Aβ potency (IC50) with C99GVP versus native APP substrate” value in experiment [4] (FIG. 5E) was “equal Aβ potency”.

B1: C99GVP-SLSS: C99GVP in which the GSNK motif was substituted with SLSS from APLP2 (SEQ ID NO:51) (protein)
chain: DAEFRHDSGYEVHHQKLVFFAEDVSLSSGAIIGLMVGGVVIATVIVITLVMLKKKKLLSSIEQACDICRLKKLKCSKEKPKCAKCLKNNWECRYSPKTKRSPLTRAHLTEVESRLERLEQLFLLIFPREDLDMILKMDSLQDIKALLTGLFVQDNVNKDAVTDRLASVETDMPLTLRQHRISATSSSEESSNKGQRQLTVSGIPGDLAPPTDVSLGDELHLDGEDVAMAHADALDDFDLDMLGDGDSPGPGFTPHDSAPYGALDMADFEFEQMFTDALGIDEYGGQYTSIHHGVVEVDAAVTPEERHLSKMQQNGYENPTYKFFEQMQN
For the molecule B1, the “reduction in secreted Aβ” value in experiment [1] (versus C99GVP, FIGS. 9B and 9C) is given as roughly 97%.
